This is an account of results in US11293863B2, “Robust interferometer and methods of using same” (Vanderbilt University, priority 2015, dated 2022).

Test [1] concerns FAAH in small unilamellar vesicles; CXCR4 receptor; GABAB receptor in CHO cell membranes. The test is described as follows: BSI label-free free-solution binding assays on membrane proteins (negative controls). To be noted: negative control compound, even the highest concentrations. From the text:
Membrane-associated proteins and their interactions are of paramount interest in the design of clinical therapeutics, accounting for almost 70% of existing drug candidate targets (Krummel and Davis (2002) Current Opinion in Immunology 14: 66-74; Overington et al. (2006) Nature Reviews Drug Discovery 5: 993-996). To date, it has been difficult to perform direct binding assays on cellular membranes except by down-stream signal transduction or the use of isotope labeling methods. BSI facilitated label-free, free solution binding assays on proteoliposomes (Bracey et al. (2002) Science 298: 1793-1796; Jass et al. (2000) Biophysical Journal 79: 3153-3163) from full-length, functional membrane proteins, from both natural and recombinant sources (Kussrow et al. (2010) Chembiochem DOI: 10.1002/cbic.201000671). […]

Test [2] deals with lectin Concanavalin A (ConA) (Canavalia ensiformis, UniProt P02866). The following applies: non-binding sugar used as control, free-solution BSI with ConA; cited from earlier work.

`C[C@H](N)C(=O)O` [L-alanine]: the BSI signal result in test [1] is “Little or no BSI signal”.

For `CC(C)CCC[C@@H](C)[C@H]1CC[C@H]2[C@@H]3CC=C4C[C@@H](O)CC[C@]4(C)[C@H]3CC[C@]12C` [cholesterol], the BSI signal result in test [1] was “Little or no BSI signal”.

Consider `O=C[C@H](O)[C@@H](O)[C@@H](O)[C@H](O)CO` [galactose], for which the BSI binding signal entry in test [2] is reported as “no binding signal”.
